Laboratory results taken from ChEMBL document CHEMBL4334476 (J Med Chem, 2019).

Assays:
Arginase-1 = molecular target: T1, Arginase-1 (Homo sapiens, UniProt P05089); assay: Inhibition of human recombinant arginase 1 expressed in Escherichia coli BL21 (DE3) assessed as reduction in urea production using L-arginine as substrate in presence of MnSO4 incubated for 60 mins by o-phthaldialdehyde/N-(1-naphthyl)ethylene-diamine dihydrochloride reagent based colorimetric assay
T1 sequence (P05089 whole entry): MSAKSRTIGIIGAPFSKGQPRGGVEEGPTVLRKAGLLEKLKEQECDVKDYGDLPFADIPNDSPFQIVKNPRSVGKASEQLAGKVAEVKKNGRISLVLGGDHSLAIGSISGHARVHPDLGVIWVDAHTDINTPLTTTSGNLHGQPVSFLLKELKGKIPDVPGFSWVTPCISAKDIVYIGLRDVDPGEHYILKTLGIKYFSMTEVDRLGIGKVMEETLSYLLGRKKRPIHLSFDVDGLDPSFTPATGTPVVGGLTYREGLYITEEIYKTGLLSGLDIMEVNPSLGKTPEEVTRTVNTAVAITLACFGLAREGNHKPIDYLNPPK

[1] = Inhibition of human recombinant arginase 2 H331 to I354 deletion mutant expressed in Escherichia coli BL21 (DE3) assessed as reduction in urea production using L-arginine as substrate in presence of MnSO4 incubated for 60 mins by colorimetric assay
Homo sapiens = species: Homo sapiens; assay: Selectivity ratio of IC50 for human recombinant arginase 2 H331 to I354 deletion mutant expressed in Escherichia coli BL21 (DE3) to IC50 for human recombinant arginase 1 expressed in Escherichia coli BL21 (DE3)
[2] = molecular target: T2, Arginase-1 (Homo sapiens) (UniProt P05089); assay: Potency index, ratio of ABH IC50 to test compound IC50 for human recombinant arginase 1 expressed in Escherichia coli BL21 (DE3)
T2 sequence (whole entry): T1 sequence (P05089 whole entry)

Row | IC50 (Arginase-1; read-out: IC50) | IC50 ([1]; read-out: IC50) | Ratio IC50 (Homo sapiens) | IC50 (Arginase-1) | IC50 [1] | Ratio IC50 [2] | Structure (SMILES)
1 | 0.0077 µM | 0.016 µM | 2 to 5 |  |  |  | C[C@H](N)CN1C[C@H](CCCB(O)O)[C@](N)(C(=O)O)C1
2 | 0.34 µM | 2.23 µM | 3 to 5 |  |  |  | Cc1nn(C)c(C)c1CN1C[C@H](CCCB(O)O)[C@](N)(C(=O)O)C1
3 | 0.0025 µM | 0.0095 µM | 3 to 5 |  |  |  | N[C@H](CN1C[C@H](CCCB(O)O)[C@](N)(C(=O)O)C1)c1ccccc1
4 | 0.1 µM | 0.33 µM | 3 to 5 |  |  |  | Cn1ccnc1CN1C[C@H](CCCB(O)O)[C@](N)(C(=O)O)C1
5 |  |  |  | Not Active | Not Active |  | N[C@]1(C(=O)O)CCC[C@H]1CCCB(O)O
6 | 0.019 µM | 0.065 µM | 3 to 5 |  |  |  | N[C@@]1(C(=O)O)CN(C[C@H]2COCCN2)C[C@@H]1CCCB(O)O
7 | 0.016 µM | 0.037 µM | 3 to 5 |  |  |  | C[C@@H](N)CN1C[C@H](CCCB(O)O)[C@](N)(C(=O)O)C1
8 | 0.01 µM | 0.037 µM | 3 to 5 |  |  |  | N[C@@]1(C(=O)O)CN(C[C@H]2CCCN2)C[C@@H]1CCCB(O)O
9 |  | 1.26 µM |  |  |  |  | N=C(NO)NCC[C@H](N)C(=O)O [NOR-NOHA]
10 | 0.01 µM | 0.027 µM | 3 to 5 |  |  |  | N[C@H](Cc1ccccc1)CN1C[C@H](CCCB(O)O)[C@](N)(C(=O)O)C1
11 | 0.67 µM | 2.16 µM | 3 to 5 |  |  |  | N[C@@]1(C(=O)O)CN(Cc2cccc(F)n2)C[C@@H]1CCCB(O)O
12 | 0.018 µM | 0.062 µM | 3 to 5 |  |  |  | N[C@@H](CN1C[C@H](CCCB(O)O)[C@](N)(C(=O)O)C1)c1ccccc1
13 | 0.6 µM | 1.86 µM | 3 to 5 |  |  |  | N[C@@]1(C(=O)O)CN(Cc2ccncc2)C[C@@H]1CCCB(O)O
14 | 0.0013 µM | 0.0081 µM | 3 to 5 |  |  | 1190 | N[C@@H](Cc1ccccc1)CN1C[C@H](CCCB(O)O)[C@](N)(C(=O)O)C1
15 | 0.0026 µM | 0.014 µM | 3 to 5 |  |  |  | N[C@@]1(C(=O)O)CN(C[C@H]2CCCCN2)C[C@@H]1CCCB(O)O
16 | 0.47 µM | 1.37 µM | 3 to 5 |  |  |  | N[C@@]1(C(=O)O)CN(Cc2cccnc2)C[C@@H]1CCCB(O)O
17 | 0.011 µM | 0.047 µM | 3 to 5 |  |  |  | N[C@@]1(C(=O)O)CN(C[C@@H]2CCCN2)C[C@@H]1CCCB(O)O
18 | 0.03 µM | 0.095 µM | 3 to 5 |  |  |  | N[C@@]1(C(=O)O)CN(C[C@@H]2CCCCN2)C[C@@H]1CCCB(O)O
19 | 0.21 µM | 0.63 µM | 3 to 5 |  |  |  | N[C@@]1(C(=O)O)CCC[C@@H]1CCCB(O)O
20 |  |  | 3 to 5 |  |  |  | NC1(C(=O)O)CCCC1CCCB(O)O (racemic; 8) [listing 1 of 2 here]
21 | 0.38 µM | 1.27 µM | 3 to 5 |  |  |  | N[C@@]1(C(=O)O)CN(Cc2ccccn2)C[C@@H]1CCCB(O)O
22 | 48 µM | 79.2 µM |  |  |  |  | NC1(C(=O)O)CCCC1CCCB(O)O (racemic; 9)
23 | 0.3 µM | 1.54 µM | 3 to 5 |  |  |  | N[C@@]1(C(=O)O)CN(Cc2ccccc2)C[C@@H]1CCCB(O)O
24 | 0.39 µM | 1.61 µM | 3 to 5 |  |  |  | CC(C)CN1C[C@H](CCCB(O)O)[C@](N)(C(=O)O)C1
25 | 1.55 µM | 2.55 µM | 3 to 5 |  |  |  | N[C@@H](CCCCB(O)O)C(=O)O
26 | 0.01 µM | 0.027 µM | 3 to 5 |  |  |  | N[C@@]1(C(=O)O)CN(C[C@@H]2COCCN2)C[C@@H]1CCCB(O)O
27 | 0.36 µM | 0.85 µM | 3 to 5 |  |  |  | N[C@@]1(C(=O)O)CN(Cc2cncs2)C[C@@H]1CCCB(O)O
28 | 0.4 µM | 2.18 µM | 3 to 5 |  |  |  | Cc1[nH]ncc1CN1C[C@H](CCCB(O)O)[C@](N)(C(=O)O)C1
29 | 0.38 µM | 1.28 µM |  |  |  |  | NC1(C(=O)O)CCCC1CCCB(O)O (racemic; 8) [listing 2 of 2 here]
30 | 0.11 µM | 0.44 µM | 3 to 5 |  |  |  | N[C@@]1(C(=O)O)CNC[C@@H]1CCCB(O)O
